Consider 12 compounds from publication PMC5503546, “Synthesis, bioactivity, 3D-QSAR studies of novel dibenzofuran derivatives as PTP-MEG2 inhibitors” (Oncotarget, 2017).

For orientation: IC50 means the concentration at which inhibition is half-maximal.

For assay [1], the target named is T1, Human recombinant SHP2 (Homo sapiens, UniProt Q06124).
T1 construct: made in house; host or cells: E. coli
T1 sequence (Q06124 1-593): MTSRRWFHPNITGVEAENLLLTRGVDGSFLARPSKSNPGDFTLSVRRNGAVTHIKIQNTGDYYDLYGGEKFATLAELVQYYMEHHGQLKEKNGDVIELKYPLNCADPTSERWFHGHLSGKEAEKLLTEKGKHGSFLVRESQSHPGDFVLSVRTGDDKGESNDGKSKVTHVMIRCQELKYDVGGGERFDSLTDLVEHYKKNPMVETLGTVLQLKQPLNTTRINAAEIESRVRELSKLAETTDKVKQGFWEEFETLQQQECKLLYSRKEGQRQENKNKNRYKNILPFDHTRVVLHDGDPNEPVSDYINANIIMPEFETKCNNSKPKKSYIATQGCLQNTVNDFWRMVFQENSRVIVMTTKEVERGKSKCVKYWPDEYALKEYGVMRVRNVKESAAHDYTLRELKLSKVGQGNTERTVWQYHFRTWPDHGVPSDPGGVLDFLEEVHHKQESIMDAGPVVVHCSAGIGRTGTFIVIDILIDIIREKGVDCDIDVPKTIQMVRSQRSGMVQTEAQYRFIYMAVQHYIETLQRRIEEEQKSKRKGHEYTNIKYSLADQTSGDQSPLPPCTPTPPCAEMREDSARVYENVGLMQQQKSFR
In words: PTP activity assay (pNPP), SHP2. The format is biochemical. The settings on record: triplicate; read-out: SHP-2 IC50. The text has this: (§1) Human recombinant PTP-MEG2, SHP2 and CDC25 were expressed in E. coli and purified by Ni-NTA affinity chromatography in our laboratory. The basic chemical reaction catalyzed by a phosphatase converts a phosphosubstrate into a dephosphorylated product and free phosphate which could be measured as a surrogate for phosphatase activity. pNPP(para-nitrophenyl phosphate) was used as phosphatase substrate which can be hydrolyzed by phosphatase to give para-nitrophenol. Subsequently, para-nitrophenol converts into para-nitrophenolate (pNP) with addition of sodium hydroxide stop solution. pNP is an intense yellow compound and could be measured at 405 nm using a spectrophotometer. To begin with, purified recombinant PTP-MEG2, SHP2 and CDC25 (0.05 μg) in 50 μL buffer with 50 mM citrate (pH 6.0), 0.1 M NaCl, 1 mM EDTA, and 1 mM dithiothreitol (DTT) and test compounds were added to each well of a 96-well plate. Blank was prepared by omitting enzyme and substituting an equivalent volume of buffer. After preincubation for 15 min at room temperature, 50 μL of reaction buffer with 2 mM pNPP was added and incubated at 37°C for 30 min. Then, the reaction was stopped by adding 10 μL 0.2 M sodium hydroxide and chilled on ice quickly. In addition, the amount of pNP was measured by detecting the absorption at 405 nm against blank. Finally, IC50 values were determined by analyzing the data using ORIGINPRO 8 software.

Assay [2] concerns Human recombinant CDC25. In words: PTP activity assay (pNPP), CDC25. To be noted: triplicate. It counts as biochemical.
Source text: as §1

Assay [3] concerns the target T2, Human recombinant PTP-MEG2 (Homo sapiens, UniProt P43378).
T2 construct: made in house; host or cells: E. coli
T2 sequence (P43378 1-593): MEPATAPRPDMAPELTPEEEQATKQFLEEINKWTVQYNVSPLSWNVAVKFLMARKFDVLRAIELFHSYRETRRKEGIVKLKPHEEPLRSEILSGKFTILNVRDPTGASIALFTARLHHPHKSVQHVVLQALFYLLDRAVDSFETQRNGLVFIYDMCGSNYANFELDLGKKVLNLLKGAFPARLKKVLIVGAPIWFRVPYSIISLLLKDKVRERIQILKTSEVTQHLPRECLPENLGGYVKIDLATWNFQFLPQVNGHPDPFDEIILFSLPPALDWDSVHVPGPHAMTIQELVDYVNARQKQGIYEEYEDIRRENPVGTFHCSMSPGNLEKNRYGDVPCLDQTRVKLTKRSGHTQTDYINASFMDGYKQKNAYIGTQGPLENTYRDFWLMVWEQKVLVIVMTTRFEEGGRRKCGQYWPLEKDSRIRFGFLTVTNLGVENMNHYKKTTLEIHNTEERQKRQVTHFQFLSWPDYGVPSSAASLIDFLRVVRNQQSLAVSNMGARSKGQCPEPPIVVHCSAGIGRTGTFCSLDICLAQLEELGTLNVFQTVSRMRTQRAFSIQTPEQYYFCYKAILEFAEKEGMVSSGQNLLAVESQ
In words: PTP activity assay (pNPP), PTP-MEG2. The format is biochemical. To be noted: triplicate, mean ± S.E.M.
Source text: as §1

Assay [4] has as its system diet-induced obese mice. To be noted: ref [20]; cited from earlier work.

For the compound `CCOC(=O)c1cc(OC(C)=O)c2c(c1)oc1cc(F)c(C(C)C)cc12` [Compound 8, ethyl 1-acetoxy-7-fluoro-8-isopropyldibenzo[b, d]furan-3-carboxylate], the IC50 in assay [1] was > 50 µM; in assay [2] it was > 50 µM; in assay [3], 3.7 ± 0.22 µM.
With `COC(=O)c1cc(O)c2c(c1)oc1cc(F)c(C(C)C)cc12` [Compound 9a, methyl 7-fluoro-1-hydroxy-8-isopropyldibenzo[b, d]furan-3-carboxylate], the IC50 in assay [1] was > 50 µM; in assay [2], > 50 µM; in assay [3] it was 5 ± 0.4 µM.
In the case of `CCOC(=O)c1cc(OCC2CC2)c2c(c1)oc1cc(F)c(C(C)C)cc12` [Compound 10a, ethyl 1-(cyclopropylmethoxy)-7-fluoro-8-isopropyldibenzo[b, d]furan-3-carboxylate], the figures for the IC50 in assay [1], in assay [2] and in assay [3] were > 50 µM, > 50 µM and 0.32 ± 0.02 µM, respectively.
Consider `CCCCCCOc1cc(C(=O)OCC)cc2oc3cc(F)c(C(C)C)cc3c12` [Compound 10b, ethyl 7-fluoro-1-(hexyloxy)-8-isopropyldibenzo[b, d]furan-3-carboxylate], for which the IC50 in assay [1] was > 50 µM; in assay [2], > 50 µM; in assay [3] it was 1.22 ± 0.11 µM.
Take `CCOC(=O)c1cc(OCC2CCCCC2)c2c(c1)oc1cc(F)c(C(C)C)cc12` [Compound 10c, ethyl 1-(cyclohexylmethoxy)-7-fluoro-8-isopropyldibenzo[b, d]furan-3-carboxylate]: the IC50 is > 50 µM in assay [1], > 50 µM in assay [2] and 1.19 ± 0.08 µM in assay [3].
Take `CCOC(=O)c1cc(OCc2ccc(OC)cc2)c2c(c1)oc1cc(F)c(C(C)C)cc12` [Compound 10d, ethyl7-fluoro-8-isopropyl-1-((4-methoxybenzyl)oxy)dibenzo[b, d]furan-3-carboxylate]: the results for the IC50 in assay [1], in assay [2] and in assay [3] were > 50 µM, > 50 µM and 3.39 ± 0.34 µM, respectively.
In the case of `CCCCCCOc1cc(C(=O)OCC2CC2)cc2oc3cc(F)c(C(C)C)cc3c12` [Compound 11a, cyclopropylmethyl7-fluoro-1-(hexyloxy)-8-isopropyldibenzo[b, d]furan-3-carboxylate], the IC50 was > 50 µM in assay [1], > 50 µM in assay [2] and 2.41 ± 0.17 µM in assay [3].
As for `COc1ccc(COc2cc(C(=O)OCC3CC3)cc3oc4cc(F)c(C(C)C)cc4c23)cc1` [Compound 11b, cyclopropylmethyl7-fluoro-8-isopropyl-1-((4-methoxybenzyl)oxy)dibenzo[b, d]furan-3-carboxylate], the IC50 in assay [1] is > 50 µM; in assay [2], > 50 µM; in assay [3], 1.06 ± 0.1 µM.
For the compound `CCCCCCOc1cc(C(=O)OCC2CCCCC2)cc2oc3cc(F)c(C(C)C)cc3c12` [Compound 11c, cyclohexylmethyl7-fluoro-1-(hexyloxy)-8-isopropyldibenzo[b, d]furan-3-carboxylate], the IC50 in assay [1] was > 50 µM; in assay [2], > 50 µM; in assay [3] it was 3.16 ± 0.32 µM.
As for `COc1ccc(COc2cc(C(=O)OCC3CCCCC3)cc3oc4cc(F)c(C(C)C)cc4c23)cc1` [Compound 11d, cyclohexylmethyl7-fluoro-8-isopropyl-1-((4-methoxybenzyl)oxy)dibenzo[b, d]furan-3-carboxylate], the results for the IC50 in assay [1], in assay [2] and in assay [3] were > 50 µM, > 50 µM and 0.83 ± 0.04 µM, respectively.
Consider `CC(C)c1cc2c(cc1F)oc1cc(C(=O)O)cc(OCC3CC3)c12` [Compound 11e, 1-(cyclopropylmethoxy)-7-fluoro-8-isopropyldibenzo[b, d]furan-3-carboxylic acid], for which the IC50 is > 50 µM in assay [1], > 50 µM in assay [2] and 5.35 ± 0.43 µM in assay [3].
As for `CCOC(=O)/C(=C/C#Cc1cc(C(C)C)c(F)cc1OC)CC(=O)O` [compound7], the “effect on insulin signaling, insulin sensitivity and glucose homeostasis” value in assay [4] was “augment insulin signaling and enhance the insulin sensitivity and glucose homeostasis”.
